This experiment deals with T1, human PPAR alpha (Homo sapiens, UniProt Q07869).
T1 sequence (Q07869 1-468): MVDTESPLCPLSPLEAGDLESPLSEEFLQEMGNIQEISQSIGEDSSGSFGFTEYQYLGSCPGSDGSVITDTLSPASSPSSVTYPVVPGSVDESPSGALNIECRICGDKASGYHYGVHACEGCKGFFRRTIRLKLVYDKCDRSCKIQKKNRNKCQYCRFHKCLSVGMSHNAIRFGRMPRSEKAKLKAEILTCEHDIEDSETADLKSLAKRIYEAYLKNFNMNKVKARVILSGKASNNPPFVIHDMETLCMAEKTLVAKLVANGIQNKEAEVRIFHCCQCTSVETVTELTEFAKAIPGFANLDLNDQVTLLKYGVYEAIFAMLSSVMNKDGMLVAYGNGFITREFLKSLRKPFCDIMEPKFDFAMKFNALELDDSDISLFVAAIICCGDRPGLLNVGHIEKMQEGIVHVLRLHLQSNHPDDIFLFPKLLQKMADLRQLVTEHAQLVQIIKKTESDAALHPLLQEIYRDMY
Nature of the experiment: PPAR alpha assay as described in WO03/051821. The class given is cell-based. The following applies: assay described in WO03/051821 (incorporated by reference). The protocol: The compounds of the invention were tested in the assays described in WO03/051821 which is incorporated herein by reference.

Our source for the EC50 values is patent US20060199857A1, “Therapeutic agents” (ASTRAZENECA UK LIMITED, priority 2003, published 2006).

In general, EC50 refers to the midpoint of the concentration-response curve.

As to `O=C(c1ccccc1)c1ccc(OCCc2ccc(CC(SCCc3ccc(O)cc3)C(=O)O)cc2)cc1` (stereo not shown) [Example 7, 3-{4-[2-(4-Benzoylphenoxy)ethyl]phenyl}-2-{[2-(4-hydroxyphenyl)ethyl]thio}propanoic acid], the concentration for a half-maximal effect (EC50) is 780 nM.
